≈ marks a conversion by molar mass, not a printed value.
Assays:
[1] = tested on: human breast cancer MCF-7; experiment: Annexin V-PI double staining flow cytometry apoptosis, MCF-7; assay type: cell-based; conditions: MCF-7, concentration equals to IC50, 48 hours
[2] = Druggability screening: solubility in PBS (pH7.4); assay type: physicochemical; conditions: pH 7.4, aqueous buffer
[3] = tested on: gastric (BGC-823); experiment: Anticancer activity in vitro (Table 3), BGC-823; assay type: cell-based, human
[4] = tested on: Prostate (PC-3); experiment: Anticancer activity in vitro (Table 3), PC-3; assay type: cell-based, human; conditions: 48 h
[5] = tested on: human breast cancer MCF-7; experiment: MTT cancer cell growth inhibition, MCF-7; assay type: cell-based
[6] = target: Cdk1/Cyclin B (Homo sapiens, UniProt P06493); experiment: Cdk1/Cyclin B inhibitory activity, Z'-LYTE Kinase Assay; assay type: biochemical; conditions: ATP 10 μM; 8 concentrations of 0.01-25 μM
[7] = tested on: Breast (MCF-7); experiment: Anticancer activity in vitro (Table 3), MCF-7; assay type: cell-based, human
[8] = tested on: human gastric cancer BGC823 cell lines; experiment: Annexin V-PI double staining flow cytometry apoptosis, BGC823; assay type: cell-based; conditions: BGC823, concentration equals to IC50, 48 hours
[9] = Druggability screening: protein binding rate; assay type: in vitro ADME
[10] = Distribution and plasma binding in rabbits (LC-DAD-MS); assay type: in vivo
Source text: The major metabolic process relates to the structures is illustrated in the following scheme.

[11] = tested on: human gastric cancer BGC823 cell lines; experiment: MTT cancer cell growth inhibition, BGC823; assay type: cell-based
[12] = tested on: human cervical carcinoma HeLa cell line; experiment: Annexin V-PI double staining flow cytometry apoptosis, HeLa; assay type: cell-based; conditions: concentration equals to IC50, 48 hours
[13] = tested on: MCF-7; experiment: cells; conditions: Homo sapiens; for CC50: MCF7, read-out: MCF-7 LC50; for GI50: MCF7, read-out: MCT-7 GI50
[14] = tested on: 58 kinds human tumor cell; experiment: NCI growth inhibition of 58 kinds human tumor cell; assay type: cell-based; conditions: 48 h, by NCI, read-out: growth inhibition rates in vitro 58 kinds human tumor cell
[15] = tested on: human cervical carcinoma HeLa cell line; experiment: MTT cancer cell growth inhibition, HeLa; assay type: cell-based

Chain of Cdk1/Cyclin B (P06493 whole entry): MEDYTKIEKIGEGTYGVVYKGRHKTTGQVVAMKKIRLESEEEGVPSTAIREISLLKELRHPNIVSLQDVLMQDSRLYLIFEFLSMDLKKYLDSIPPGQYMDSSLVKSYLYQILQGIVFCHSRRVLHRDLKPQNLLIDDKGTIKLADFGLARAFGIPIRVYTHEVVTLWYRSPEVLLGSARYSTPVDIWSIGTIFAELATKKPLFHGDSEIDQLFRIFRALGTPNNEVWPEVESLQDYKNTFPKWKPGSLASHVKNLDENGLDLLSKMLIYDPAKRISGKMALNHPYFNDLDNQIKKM
Chain of Cdk1/Cyclin B (P14635 whole entry partner): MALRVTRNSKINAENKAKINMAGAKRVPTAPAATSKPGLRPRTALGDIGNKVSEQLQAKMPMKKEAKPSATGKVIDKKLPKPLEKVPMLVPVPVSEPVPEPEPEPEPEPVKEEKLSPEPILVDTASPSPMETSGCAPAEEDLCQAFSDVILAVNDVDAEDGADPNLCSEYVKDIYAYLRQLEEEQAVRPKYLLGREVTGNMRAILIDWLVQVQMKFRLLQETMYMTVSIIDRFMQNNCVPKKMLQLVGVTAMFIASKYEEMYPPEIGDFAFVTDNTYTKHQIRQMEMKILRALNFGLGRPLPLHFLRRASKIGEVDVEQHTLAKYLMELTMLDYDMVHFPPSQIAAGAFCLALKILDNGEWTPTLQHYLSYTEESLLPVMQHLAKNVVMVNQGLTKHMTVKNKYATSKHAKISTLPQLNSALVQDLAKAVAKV

CN1CCN(Cc2c(O)c(O)c(O)c3c(=O)cc(-c4ccccc4)oc23)CC1 [Methylpiperazine Baicalein, 5,6,7-trihydroxy-8-((4-methylpiperazin-1-yl)methyl)-2-phenyl-4H-chromen-4-one]
early apoptosis [1]: 72.3% | late apoptosis and cellular necrosis [1]: 23.1% | solubility [2]: 6.02 µM (≈ 2.3 µg/mL) | BGC-823 TGI ([3]; 48 h): 19.8 µM | GI50 ([3]; Homo sapiens, BGC-823, 48 h): 6.4 µM | IC50 ([3]; Homo sapiens, BGC-823, 48 h): 23.1 µM | CC50 ([3]; Homo sapiens, BGC-823, 48 h, read-out: BGC-823 LC50): 62.7 µM | PC-3 TGI [4]: 19.8 µM | GI50 ([4]; Homo sapiens): 8.2 µM | IC50 ([4]; Homo sapiens): 21.1 µM | LC50 ([4]; Homo sapiens): 38.8 µM | IC50 ([5]; MCF7, 24 h): 13.7 ± 0.21 µM | IC50 ([5]; MCF7, 48 h): 10.6 ± 0.17 µM | IC50 ([5]; MCF7, 72 h): 7.4 ± 0.25 µM | IC50 [6]: 0.29 µM | MCF-7 TGI ([7]; 48 h): 16.4 µM | GI50 ([7]; Homo sapiens, MCF7, 48 h): 6.4 µM | IC50 ([7]; Homo sapiens, MCF7, 48 h): 19.3 µM | CC50 ([7]; Homo sapiens, MCF7, 48 h, read-out: MCF-7 LC50): 31.3 µM | early apoptosis [8]: 69.2% | late apoptosis and cellular necrosis [8]: 22.2% | fraction unbound [9]: 0.02 | tissue distribution ([10]; LC-DAD-MS): rapidly distributed to various tissues | fraction unbound ([10]; rabbit, plasma, dose-independent manner, read-out: bound to plasma (converted)): 0.02 | IC50 ([11]; BGC-823, 24 h): 9.6 ± 0.21 µM | IC50 ([11]; BGC-823, 48 h): 7.2 ± 0.23 µM | IC50 ([11]; BGC-823, 72 h): 6.5 ± 0.19 µM | early apoptosis [12]: 67.3% | late apoptosis and cellular necrosis [12]: 27.1% | CC50 [13]: 37.2 µM | GI50 [13]: 10.9 µM | inhibition at 10 µM [14]: 50% | IC50 ([15]; 24 h): 12.8 ± 0.2 µM | IC50 ([15]; 48 h): 8.2 ± 0.15 µM | IC50 ([15]; 72 h): 6.7 ± 0.24 µM

COc1c(O)c(CN2CCN(C)CC2)c(O)c2c(=O)cc(-c3ccccc3)oc12 [Methylpiperazine Wogonin, 6-((4-methylpiperazin-1-yl)methyl)-5,7-dihydroxy-8-methoxy-2-phenyl-4H-chromen-4-one]
IC50 [6]: > 25 µM

O=c1cc(-c2ccccc2)oc2c(CN3CCOCC3)c(O)c(O)c(O)c12 [Morpholine Baicalein]
IC50 [6]: 0.3 µM | CC50 [13]: 48.9 µM | GI50 [13]: 10.1 µM

COc1c(O)c(CN2CCOCC2)c(O)c2c(=O)cc(-c3ccccc3)oc12 [Morpholine Wogonin, 5,7-dihydroxy-8-methoxy-6-(morpholinomethyl)-2-phenyl-4H-chromen-4-one]
IC50 [6]: > 25 µM

O=c1cc(-c2ccccc2)oc2c(CN3CCNCC3)c(O)c(O)c(O)c12 [Piperazine Baicalein]
solubility [2]: 166 µM (≈ 61.2 µg/mL) | IC50 [6]: 0.28 µM | CC50 [13]: 53.1 µM | GI50 [13]: 13.8 µM

COc1c(O)c(CN2CCNCC2)c(O)c2c(=O)cc(-c3ccccc3)oc12 [Piperazine Wogonin, 5,7-dihydroxy-8-methoxy-2-phenyl-6-(piperazin-1-ylmethyl)-4H-chromen-4-one]
IC50 [6]: 6.62 µM

O=c1cc(-c2ccccc2)oc2c(CN3CCCCC3)c(O)c(O)c(O)c12 [Piperidine Baicalein]
CC50 [13]: 37.2 µM | GI50 [13]: 10.5 µM

COc1c(O)c(CN2CCCCC2)c(O)c2c(=O)cc(-c3ccccc3)oc12 [Piperidine Wogonin, 5,7-dihydroxy-8-methoxy-2-phenyl-6-(piperidin-1-ylmethyl)-4H-chromen-4-one]
IC50 [6]: 10.5 µM

O=c1cc(-c2ccccc2)oc2c(CN3CCCC3)c(O)c(O)c(O)c12 [Pyrrolidine Baicalein]
GI50 [13]: 10.3 µM

COc1c(O)c(CN2CCCC2)c(O)c2c(=O)cc(-c3ccccc3)oc12 [Pyrrolidine Wogonin, 5,7-dihydroxy-8-methoxy-2-phenyl-6-(pyrrolidin-1-ylmethyl)-4H-chromen-4-one]
IC50 [6]: 17.2 µM

O=c1cc(-c2ccccc2)oc2c(CN3CCSCC3)c(O)c(O)c(O)c12 [Sulfurmorpholine Baicalein]
CC50 [13]: 84.3 µM | GI50 [13]: 14.2 µM

COc1c(O)c(CN2CCSCC2)c(O)c2c(=O)cc(-c3ccccc3)oc12 [Sulfurmorpholine Wogonin, 5,7-dihydroxy-8-methoxy-2-phenyl-6-(thiomorpholinomethyl)-4H-chromen-4-one]
IC50 [6]: 3.17 µM

COc1c(O)cc(O)c2c(=O)cc(-c3ccccc3)oc12 [Wogonin, reference compound]
IC50 [6]: 3.5 µM

— US8377895B2, “Cyclin-dependent protein kinases inhibitors of Scutellaria flavonoid organic amine derivatives, synthesis and use thereof” (priority 2008, dated 2013)
